One data set concerns HepG2. As to conditions: Homo sapiens, dose 25.0 mg/kg.
Data set [1] has as its system PLC-PRF-5. Put plainly: Antitumor activity against human PLC-PRF-5 cells xenografted in BALB/c nude mouse assessed as inhibition of tumor growth by measuring T/C ratio at 25 mg/kg, po. The class given is functional. (In xenograft studies the graft and the host belong to different species.)
For the next data set, the system named is MDA-MB-231. The data set is described as follows: Antiproliferative activity against human MDA-MB-231 cells after 48 hrs by MTT assay. As to conditions: MDA-MB-231, 48 h. For orientation: Tetrazolium assays rely on reduction of a dye to a coloured formazan, in cell work by metabolically active cells.
A further data set deals with PC-3. The data set is described as follows: cells. Conditions: Homo sapiens, PC-3, 48 h.
For a further data set, the system named is HEL. The data set is described as follows: cells. Conditions: Homo sapiens, 48 h.
Data set [2] can be described thus: Antiproliferative activity against human 3AO cells after 48 hrs by MTT assay.
A short description of data set [3]: Prodrug conversion in human plasma assessed as release of active metabolites GEM and Ube measured within 120 mins at 37 degC by HPLC analysis. The class given is ADME, cell-free. Conditions: 2 h.
A further data set deals with K562. The data set is described as follows: cells. As to conditions: Homo sapiens, K562, 48 h.
Data set [4] concerns PLC-PRF-5. Put plainly: Induction of apoptosis in human PLC-PRF-5 cells assessed as necrotic cells at 2 uM after 48 hrs by Annexin V-FITC/propidium iodide staining-based flow cytometric analysis (reference value: 6.1 %). The class given is functional. (In general: A flow cytometer gives signals particle by particle.)
A further data set relates to KG-1. Put plainly: Antiproliferative activity against human KG1 cells after 48 hrs by MTT assay. Conditions: KG-1, 48 h.
Data set [5] relates to H22. Put plainly: Antitumor activity against mouse H22 cells transplanted in Kunming mouse assessed as tumor growth inhibition at 25 mg/kg, po administered every 4 days for 4 doses. The class given is functional, organism-based. Conditions: time 4.0 day.
A further data set has as its target T1, Aminopeptidase N (Sus scrofa, UniProt P15145).
T1 sequence (P15145 whole entry): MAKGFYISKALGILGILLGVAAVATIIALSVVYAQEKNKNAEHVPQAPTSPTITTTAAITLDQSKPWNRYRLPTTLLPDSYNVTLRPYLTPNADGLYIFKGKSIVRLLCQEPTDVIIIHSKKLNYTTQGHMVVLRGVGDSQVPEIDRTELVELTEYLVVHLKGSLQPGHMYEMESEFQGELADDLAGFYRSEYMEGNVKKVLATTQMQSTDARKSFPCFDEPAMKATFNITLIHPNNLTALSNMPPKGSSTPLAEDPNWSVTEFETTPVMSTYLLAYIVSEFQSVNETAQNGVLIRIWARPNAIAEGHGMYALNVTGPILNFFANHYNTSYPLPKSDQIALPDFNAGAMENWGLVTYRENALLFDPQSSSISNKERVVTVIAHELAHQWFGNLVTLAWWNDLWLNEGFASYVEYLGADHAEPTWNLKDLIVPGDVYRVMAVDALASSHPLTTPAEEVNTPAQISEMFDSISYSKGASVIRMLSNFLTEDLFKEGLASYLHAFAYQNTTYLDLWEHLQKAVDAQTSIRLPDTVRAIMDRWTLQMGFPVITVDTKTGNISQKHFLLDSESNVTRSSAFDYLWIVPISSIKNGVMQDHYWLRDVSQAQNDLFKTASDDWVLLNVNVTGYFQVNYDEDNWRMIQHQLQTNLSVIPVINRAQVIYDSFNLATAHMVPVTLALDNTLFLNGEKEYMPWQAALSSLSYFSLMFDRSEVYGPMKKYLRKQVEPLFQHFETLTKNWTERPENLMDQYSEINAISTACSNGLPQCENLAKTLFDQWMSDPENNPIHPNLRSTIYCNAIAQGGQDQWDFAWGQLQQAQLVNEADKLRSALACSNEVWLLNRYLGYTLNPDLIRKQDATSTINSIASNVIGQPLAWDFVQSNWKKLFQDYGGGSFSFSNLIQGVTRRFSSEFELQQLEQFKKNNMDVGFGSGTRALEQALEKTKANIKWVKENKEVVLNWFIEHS
The data set is described as follows: Inhibition of porcine kidney microsomal CD13 using L-leucine-p-nitroanilide as substrate preincubated for 5 mins followed by substrate addition and measured after 30 mins by microplate reader analysis. The class given is microsomes, Microsome.

Another data set has as its system U-937. The data set is described as follows: cells. As to conditions: Homo sapiens, U-937, 48 h.
Data set [6] in a line: Antiproliferative activity against human ES2 cells after 48 hrs by MTT assay. As to conditions: ES-2, 48 h.
Data set [7] concerns PLC-PRF-5. The data set is described as follows: Inhibition of colony formation in human PLC-PRF-5 cells assessed as reduction in number of colonies at 0.2 uM after 2 weeks by Giemsa staining based inverted microscopic analysis. The class given is functional, cell-based.
Data set [8] has as its system PLC-PRF-5. Put plainly: Induction of apoptosis in human PLC-PRF-5 cells assessed as late apoptotic cells at 2 uM after 48 hrs by Annexin V-FITC/propidium iodide staining-based flow cytometric analysis (reference value: 8.7 %). The class given is functional.
A further data set concerns A549. Put plainly: cells. Conditions: Homo sapiens, A549, 48 h.
For a further data set, the system named is Aorta. Put plainly: Antiangiogenic activity in Wistar rat thoracic aortic rings assessed as decrease in number of microvessels sprouting at 20 ug/ml treated every other day for 9 days. The class given is functional, tissue-based. Conditions: dose 20.0 µg/ml, time 9.0 day.
Another data set relates to U-266. The data set is described as follows: Antiproliferative activity against human U266 cells after 48 hrs by MTT assay. Conditions: U-266, 48 h.
The subject of the next data set is HeLa. The data set is described as follows: cells. Conditions: Homo sapiens, 48 h.
The test system of data set [9] is PLC-PRF-5. The data set is described as follows: Antiproliferative activity against human PLC-PRF-5 cells after 48 hrs by MTT assay. As to conditions: PLC-PRF-5, 48 h.
In another data set the test system is HUVEC. Put plainly: Antiangiogenic activity in HUVEC assessed as inhibition of capillary like tubular formation at 30 uM after 8 hrs by matrigel based tube formation assay. The class given is functional. Conditions: Homo sapiens.
Another data set deals with L02. Put plainly: Antiproliferative activity against human HL7702 cells after 48 hrs by MTT assay. Conditions: L02, 48 h.
In data set [10] the test system is H22. Put plainly: Antitumor activity against mouse H22 cells transplanted in Kunming mouse assessed as tumor growth inhibition at 25 mg/kg, ip administered every 4 days for 4 doses. The class given is functional, organism-based. As to conditions: time 4.0 day.
Data set [11] concerns PLC-PRF-5. Put plainly: Antitumor activity against human PLC-PRF-5 cells xenografted in BALB/c nude mouse assessed as inhibition of tumor growth by measuring T/C ratio at 25 mg/kg, ip. The class given is functional.

Broadly, the inhibition is the share of the control response that was lost under treatment. The T/C is the ratio of treated to control. For orientation: IC50 means the point on the concentration scale where inhibition reaches its midpoint. A high value points to a need for much substance.

Active and inactive are the calls of the source. No cut-off for these calls is given here. Where only a bound is given, the exact number is not on record here.

Description for HepG2: Antitumor activity against human HepG2 cells xenografted in BALB/c nude mouse assessed as inhibition of tumor growth at 25 mg/kg, po
Description for PC-3: Antiproliferative activity against human PC-3 cells after 48 hrs by MTT assay
Description for U-937: Antiproliferative activity against human U937 cells after 48 hrs by MTT assay

In the case of `CC(C)C[C@H](NC(=O)[C@@H](O)[C@H](N)Cc1ccccc1)C(=O)Nc1ccn([C@@H]2O[C@H](CO)[C@@H](O)C2(F)F)c(=O)n1.Cl`, the inhibition result in the data set on HepG2 was “Active”. In addition, the T/C with PLC-PRF-5 [1] is reported as 51%. Further, the 50% inhibitory concentration (IC50) in the data set with MDA-MB-231 came to 1560 nM; with PC-3, 260 nM; in the data set on HEL, 610 nM; in data set [2], 9730 nM; in the data set with K562, 130 nM; with KG-1 it was 820 nM. Moreover, the IC50 against Aminopeptidase N was found to be 8750 nM; with U-937, 80 nM; in data set [6] it was 280 nM; in the data set with A549 it was 660 nM; in the data set on U-266, 260 nM; in the data set with HeLa, 5480 nM. For the same compound, the values for the IC50 in the data set with PLC-PRF-5 [9] and with L02 were 1410 nM and 22100 nM, respectively. Moreover, the Drug metabolism entry in data set [3] was “Metabolite_Detected”. Further, the values for the Activity in the data set with PLC-PRF-5 [4] and with PLC-PRF-5 [8] were 10.7% and 18.4%, respectively. For the same compound, the “growth inhibition (GI)” value in the data set on H22 [5] is “Active”. Besides, the outcome in the data set on PLC-PRF-5 [7] and with Aorta was Active. Besides, the inhibition at 30 µM in the data set on HUVEC was determined as 100%.
`Nc1ccn([C@@H]2O[C@H](CO)[C@@H](O)C2(F)F)c(=O)n1` [GEMCITABINE]: the half-maximal inhibitory concentration (IC50) came out at 1670 nM with MDA-MB-231; 220 nM with PC-3; 480 nM in the data set on HEL; 5730 nM in [2]; 110 nM in the data set on K562; 860 nM with KG-1. Besides, the 50% inhibitory concentration (IC50) amounted to 70 nM with U-937; 530 nM in [6]; 260 nM with A549; 220 nM in the data set on U-266; 2740 nM with HeLa; 1530 nM in the data set with PLC-PRF-5 [9]. The compound also came in with an IC50 with L02 of 5430 nM. For the same compound, the “growth inhibition (GI)” value in the data set on H22 [10] was “Active”. Moreover, in the data set with PLC-PRF-5 [11], the T/C is recorded as 54%. The Activity with PLC-PRF-5 [4] is 25%; in the data set on PLC-PRF-5 [8] it was 18%.
As for `CC(C)C[C@H](NC(=O)[C@@H](O)[C@H](N)Cc1ccccc1)C(=O)O` [UBENIMEX], the IC50 (in the data set on MDA-MB-231; with HEL; in data set [2]; in the data set with KG-1; in [6]; in the data set on U-266) was over 500000 nM in each case. Besides, the half-inhibitory concentration (IC50) in the data set on HeLa and in the data set on PLC-PRF-5 [9] was over 500000 nM each time. For the same compound, the Activity stood at 7.1% in the data set on PLC-PRF-5 [4] and 11% in the data set with PLC-PRF-5 [8].
